Data reported in PubChem BioAssay (NCI).
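Five concentrations, 48 hours, 96-well plates. TGI: concentration producing complete growth inhibition.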

Assays:
Assay in all cases: NCI tumour cell line growth inhibition, 48 h
[1] = test system: KM20L2 colon
[2] = test system: P388/ADR leukemia
[3] = test system: DLD-1 colon
[4] = test system: DMS 114 small cell lung
[5] = test system: SNB-78 CNS
[6] = test system: M19-MEL melanoma
[7] = test system: HOP-18 NSCLC
[8] = test system: P388 leukemia
[9] = test system: SN12K1 renal
[10] = test system: XF 498 CNS
[11] = test system: LXFL 529 NSCLC
[12] = test system: RXF-631 renal

Work on `COC1OCC(O)C(NC(=O)N(C)N=O)C1O` (stereo not given) yielded a TGI [1] of over 100 µM, a TGI [2] of over 100 µM and a TGI [3] of over 100 µM. For the same compound, the TGI [4] was over 100 µM, the TGI [5] was over 100 µM and the TGI [6] was over 100 µM. For the same compound, the TGI [7] was over 100 µM, the TGI [8] was over 100 µM and the TGI [9] was over 100 µM. It also gave a TGI [10] of over 100 µM.

For `CCC12CCCN(Cc3ccccc3)C1c1c(n(C)c3ccccc13)C(CO)C2` (stereo not given), the TGI [1] was 78.1 µM, the TGI [3] was over 257 µM and the TGI [4] was 84.5 µM. For the same compound, the TGI [11] was 87.4 µM, the TGI [6] was 125 µM and the TGI [12] was 142 µM. For the same compound, the TGI [10] was 79.7 µM.

`CCOC(=O)c1nc2ccc(OC)cc2c2c1Cc1ccccc1-2` showed a TGI [1] of over 100 µM, a TGI [3] of over 100 µM and a TGI [4] of over 100 µM. The TGI [5] was over 100 µM, the TGI [11] was over 100 µM and the TGI [6] was over 100 µM. The TGI [12] was over 100 µM.

With `O=C1C=C(Nc2ccccc2C(=O)CC(=O)C(=O)Nc2ccc(Cl)cc2)c2ccccc2C1=O` the TGI [1] was over 100 µM, the TGI [3] was 35.7 µM and the TGI [4] was 16.8 µM. It also gave a TGI [5] of 81 µM, a TGI [11] of 42.6 µM and a TGI [6] of 4.41 µM. It also gave a TGI [12] of over 80.8 µM, a TGI [7] of 8.72 µM and a TGI [10] of 28.6 µM.

`CC1(C)OC[C@H](C(=N)OCc2ccccc2)O1` was tested, and the TGI [1] was over 100 µM, the TGI [3] was over 100 µM and the TGI [4] was over 100 µM. It also gave a TGI [5] of over 100 µM, a TGI [11] of over 100 µM and a TGI [6] of over 100 µM. For the same compound, the TGI [10] was over 100 µM.

Compound `CCCCCCSc1nc(N)nc2nc[nH]c12` has a TGI [1] of over 100 µM, a TGI [2] of 44.4 µM and a TGI [3] of over 100 µM. The TGI [5] was over 100 µM, the TGI [6] was over 100 µM and the TGI [7] was over 72.6 µM. It also gave a TGI [8] of over 68 µM, a TGI [9] of over 100 µM and a TGI [10] of over 89.6 µM.

For `CN(C)CCNC(=O)c1cccc2ccc(-c3ccc(Br)cc3)nc12`, the TGI [1] was 11.5 µM, the TGI [2] was 4.44 µM and the TGI [3] was 10.8 µM. For the same compound, the TGI [4] was 9.8 µM, the TGI [5] was 22.5 µM and the TGI [6] was 6.15 µM. It also gave a TGI [7] of 8.25 µM, a TGI [8] of 8.48 µM and a TGI [9] of 2.63 µM. For the same compound, the TGI [10] was 6.94 µM.

For `CC(=O)c1ccccc1NC(=O)C(=O)C(C(=O)c1ccc2ccccc2c1)C1OC(=O)c2ccccc21` (stereo not given), the TGI [1] was 94 µM, the TGI [3] was 32.3 µM and the TGI [4] was 43 µM. For the same compound, the TGI [5] was 84.8 µM, the TGI [11] was 26.3 µM and the TGI [6] was 22.8 µM. It also gave a TGI [7] of 38.7 µM and a TGI [10] of 18.1 µM.

`CC(C)OP(=S)(NC(=S)c1ccccc1)OC(C)C` was tested, and the TGI [1] was over 100 µM, the TGI [3] was over 100 µM and the TGI [4] was over 100 µM. It also gave a TGI [5] of over 100 µM, a TGI [11] of over 100 µM and a TGI [10] of over 100 µM.

`CC[C@@]1(O)C[C@H](OC2CC(N(C)C)C(O)C(C)O2)c2c(cc3c(c2O)C(=O)c2c(O)ccc(O)c2C3=O)[C@H]1C(=O)OC` (stereo not given in full) gave a TGI [1] of 0.969 µM, a TGI [2] of 0.0561 µM and a TGI [3] of 0.891 µM. The TGI [4] was 0.489 µM, the TGI [5] was 1.34 µM and the TGI [6] was 0.288 µM. The TGI [7] was 1.3 µM, the TGI [8] was 0.0317 µM and the TGI [9] was 0.256 µM. It also gave a TGI [10] of 0.463 µM.

Work on `Cc1cc(=O)oc2cc(OCCCOc3ccc4c(C)cc(=O)oc4c3)ccc12` yielded a TGI [1] of over 100 µM, a TGI [3] of over 100 µM and a TGI [4] of over 100 µM. It also gave a TGI [11] of over 100 µM, a TGI [6] of over 100 µM and a TGI [12] of over 100 µM. The TGI [10] was over 100 µM.

In the case of `COc1ccc2c(c1)Oc1cc(O)ccc1[C@H]2c1ccccc1C(=O)NC(C)c1ccccc1` (stereo not given in full), the TGI [1] is reported as 35.3 µM, the TGI [3] is reported as 43.4 µM and the TGI [4] is reported as 24.9 µM. For the same compound, the TGI [5] was 33.5 µM, the TGI [11] was 28.7 µM and the TGI [6] was 29.4 µM.

In the case of `O=C(Cc1nc2ccc(C(=O)c3ccccc3)cc2[nH]c1=O)C(=O)Nc1nc2ccccc2[nH]1`, the TGI [1] is reported as over 100 µM, the TGI [4] is reported as 79.4 µM and the TGI [11] is reported as over 100 µM. It also gave a TGI [6] of over 100 µM, a TGI [12] of over 100 µM and a TGI [7] of over 100 µM.

For `CC(=O)C(=O)NC1/C=C(C)\C=C/C(O)C/C=C(C)\C=C/C(O)CC2OC(=O)C1(C)C(=O)C2C` (stereo not given), the TGI [1] was over 100 µM, the TGI [2] was over 66.6 µM and the TGI [3] was over 100 µM. It also gave a TGI [4] of over 100 µM, a TGI [5] of over 100 µM and a TGI [6] of over 100 µM. It also gave a TGI [7] of over 100 µM, a TGI [8] of over 48.2 µM and a TGI [9] of over 100 µM.

`O=C(CCBr)N1CCN(C(=O)CCBr)CC1` was tested, and the TGI [1] was 277 µM, the TGI [2] was 181 µM and the TGI [3] was 202 µM. For the same compound, the TGI [4] was 140 µM, the TGI [5] was 295 µM and the TGI [11] was 137 µM. The TGI [6] was 252 µM, the TGI [12] was 134 µM and the TGI [7] was 238 µM. The TGI [8] was 293 µM, the TGI [9] was 196 µM and the TGI [10] was 133 µM.

Work on `CC1=NN(C(=O)Cc2ccccc2)C(=O)/C1=C\c1ccc([N+](=O)[O-])cc1` yielded a TGI [1] of over 100 µM, a TGI [3] of over 100 µM and a TGI [4] of over 100 µM. For the same compound, the TGI [5] was over 100 µM, the TGI [11] was over 100 µM and the TGI [6] was over 100 µM. It also gave a TGI [10] of over 100 µM.
